Results published in patent US20040126755A1, “Gene expression based method for distinguishing metastatic from non-metastatic forms of a tumor, and use in designing therapeutic drugs” (priority 2001, published 2004).

Legend:
Assay type in all cases: cell-based, human
[1] = test system: Daoy cells; experiment: Fibronectin-mediated cell migration assay (Boyden chamber, Chemicon QCM-FN)
Protocol: Fibronectin-mediated cell adhesion and migration were assessedusing the Chemicon QCM-FN Quantitative Cell Migration Assay (Chemicon International). Briefly, Daoy cells were grown in EMEM withh 10% FBS to 80% confluency and starved in serum-free EMEM for 24 h. Cells were washed twice with PBS, harvested them with trypsin/EDTA, and resuspended them in serum-free EMEM (1×10^6 cells/ml) with 5% BSA for 1 h. We subsequently incubated cells at 37 ° C. for 30 min with either no antibody, 0.6 ug/ml of neutralizing monoclonal anti-human PDGFRA antibody (R&D Systems), 0.6 ug/mi isotype-matched control antibody (R&D Systems), and or first pretreated them with 10 μM of MAP2K1/MAP2K2 inhibitor U0126 (Cell Signaling Technology) for 1 h. We based the concentration of antibody used on the ND50 for this lot of antibody for blocking 10 ng/ml of PDGFRA biologic activity on human WS1 cells (per R&D Systems product insert). We based the concentration of MAP2K1/MAP2K2 inhibitor U0126 used on the manufacturer?s recommendation. Following incubations, we resuspended the cells, and placed aliquots of 2×10^5 cells in 200 ul of serum-free EMEM into the upper fibronectin-(FN-) coated or BSA-coated (control) Boyden chambers (migration assay), or FN-coated wells (adhesion assay). The lower well contained 0, 1, 2, 4, 6, 8, or 10 ng/ml PDGFA (Chemicon) in 300 ll serum-free EMEM. We incubated the cells for 3 h at 37° C., stained them with cell stain solution (Chemicon), and subsequently washed them. We removed the medium, as well as non-adherent or non-migrating cells, from the upper side of the Boyden chamber membranes. We first visualized the cells by microscopy, and then subsequently eluted migrating or adherent cells with extraction solution (Chemicon) according to the manufacturer? s instructions. We aliquoted eluant (50 μl)×2 for each test sample into microtiter plates, and read the optical density (OD540-570) on a ThermoMax microplate reader (Molecular Devices). Using standardized migration rates of 130 cells per mm^2 equivalent to an OD550 of 0.270 (per Chemicon product insert), we obtained the final cell counts by averaging the two OD measurements (540 nm and 570 nm) after subtraction of the BSA control measurements (background), and determined significance (P value) using a t-test.
We tested the significance of PDGFRA in the metastatic potential of Daoy cells by fibronectin-dependent adhesion and migration assays.
To further test whether medulloblastoma migration is directly linked in part to downstream MAP2K1, MAP2K2 and MAPK1/3 activation, Daoy migration was tested in an identical fashion to that described above, except that cells were pretreated with U0126, a highly specific chemical inhibitor of MAP2K1 and MAP2K2 (FIG. 5b).

[2] = test system: MAPK1/3; experiment: Western blot, phospho-MAPK1/3 to total ratio in Daoy cell lysates
Protocol: (§1) Daoy cells were treated in a manner identical to that described above for migration. After described incubation with PDGFA, PDGFRA antibody, or MAP2K1/MAP2K2 inhibitor U0126, we prepared cell lysates by adding 500 ul lysis buffer (Cell Signaling Technology) to cell pellets on ice for 20 min, sonicating, and centrifuging at 10,000 RPM for 10 min. We collected the supernatants and mixed equal amounts of lysate protein (5.2 ug) in a 1:1 mixture with Tris-Glycine SDS sample buffer Covex). Samples were run on a 12% SDS-PAGE gel (BioRad) along with broad range protein markers (BioRad) at 125 V for 1 h. We transferred proteins to PVDF membrane (NEN Life Sciences) using a semi-dry transfer cell (BioRad). We first soaked the membrane in anhydrous methanol for 2 min, deionized water for 5 min, and transfer buffer (25 mM Tris, 0.2 M glycine, 20% methanol, pH 8.5) for 10 min. The gels were pre-soaked in transfer buffer for 15 min and subsequently electro-blotted to the membrane between filter paper soaked in transfer buffer for 45 min at a current equivalent to 2.5 × total gel area (cm^2). Following blotting, we incubated the membrane in blocking buffer (3% BSA in TBS-T) for 1 h at room temperature with gentle agitation. We subsequently incubated the membrane with primary antibody (MAP2K1/2 antibody, phospho-MAP2K1/2 (Ser217/221) antibody, MAPK1/3 (p42/p44 MAPK) antibody, or phospho-MAPK1/3 (Thr202/Tyr204) antibody; Cell Signaling Technology) diluted 1:1000 in blocking buffer overnight at 4° C. We washed the membranes in wash buffer (1% BSA in TBS-T) 3 times (1× for 10 min and 2× for 5 min) and incubated them with anti-rabbit HRP-conjugated secondary antibody (Cell Signaling Technology) diluted 1:2000 in blocking buffer for 1 h with gentle agitation at room temperature. We subsequently washed membranes with gentle agitation 5 times with 1%BSA in TBS-T (1× for 10 min in, 4× for 5 min) and once in TBS-T for 5 min. […] We scanned the developed films, and determined the optical density of each lane using NIH Image (available at http://rsb.info.nih.gov/nih-image/Default.html). […]

[3] = test system: Daoy cells; experiment: Fibronectin-mediated cell adhesion assay (Chemicon QCM-FN); conditions: increasing concentrations of PDGFA, no antibody
Protocol: Fibronectin-mediated cell adhesion and migration were assessedusing the Chemicon QCM-FN Quantitative Cell Migration Assay (Chemicon International). Briefly, Daoy cells were grown in EMEM withh 10% FBS to 80% confluency and starved in serum-free EMEM for 24 h. Cells were washed twice with PBS, harvested them with trypsin/EDTA, and resuspended them in serum-free EMEM (1×10^6 cells/ml) with 5% BSA for 1 h. We subsequently incubated cells at 37 ° C. for 30 min with either no antibody, 0.6 ug/ml of neutralizing monoclonal anti-human PDGFRA antibody (R&D Systems), 0.6 ug/mi isotype-matched control antibody (R&D Systems), and or first pretreated them with 10 μM of MAP2K1/MAP2K2 inhibitor U0126 (Cell Signaling Technology) for 1 h. […] We aliquoted eluant (50 μl)×2 for each test sample into microtiter plates, and read the optical density (OD540-570) on a ThermoMax microplate reader (Molecular Devices). Using standardized migration rates of 130 cells per mm^2 equivalent to an OD550 of 0.270 (per Chemicon product insert), we obtained the final cell counts by averaging the two OD measurements (540 nm and 570 nm) after subtraction of the BSA control measurements (background), and determined significance (P value) using a t-test. […]

[4] = test system: MAP2K1; experiment: Western blot, phospho-MAP2K1 to total ratio in Daoy cell lysates; conditions: PDGFA 10 ng/ml
Protocol: as §1, with “agitation.” for “agitation. We subsequently incubated the membrane with primary antibody (MAP2K1/2 antibody, phospho-MAP2K1/2 (Ser217/221) antibody, MAPK1/3 (p42/p44 MAPK) antibody, or phospho-MAPK1/3 (Thr202/Tyr204) antibody; Cell Signaling Technology) diluted 1:1000 in blocking buffer overnight at 4° C. We washed the membranes in wash buffer (1% BSA in TBS-T) 3 times (1× for 10 min and 2× for 5 min) and incubated them with anti-rabbit HRP-conjugated secondary antibody (Cell Signaling Technology) diluted 1:2000 in blocking buffer for 1 h with gentle agitation at room temperature. We subsequently washed membranes with gentle agitation 5 times with 1%BSA in TBS-T (1× for 10 min in, 4× for 5 min) and once in TBS-T for 5 min.”

[5] = test system: MAP2K2; experiment: Western blot, phospho-MAP2K2 to total ratio in Daoy cell lysates; conditions: PDGFA 10 ng/ml
Protocol: as §1, with “agitation.” for “agitation. We subsequently incubated the membrane with primary antibody (MAP2K1/2 antibody, phospho-MAP2K1/2 (Ser217/221) antibody, MAPK1/3 (p42/p44 MAPK) antibody, or phospho-MAPK1/3 (Thr202/Tyr204) antibody; Cell Signaling Technology) diluted 1:1000 in blocking buffer overnight at 4° C. We washed the membranes in wash buffer (1% BSA in TBS-T) 3 times (1× for 10 min and 2× for 5 min) and incubated them with anti-rabbit HRP-conjugated secondary antibody (Cell Signaling Technology) diluted 1:2000 in blocking buffer for 1 h with gentle agitation at room temperature. We subsequently washed membranes with gentle agitation 5 times with 1%BSA in TBS-T (1× for 10 min in, 4× for 5 min) and once in TBS-T for 5 min.”

Compound | decreased cell migration, % ([1]; U0126 10 μM pretreatment, no PDGFA) [%] | migration, % of normal baseline migration ([1]; U0126 treated cells, 1 ng/ml PDGFA) [%] | Daoy cell migration ([1]; U0126 treated cells, 1 ng/ml PDGFA, baseline 275, P<0.05) [cells/mm^2] | migration, % of normal baseline migration ([1]; U0126 treated cells, 10 ng/ml PDGFA) [%] | Daoy cell migration ([1]; U0126 treated cells, 10 ng/ml PDGFA, baseline 275, P<0.05) [cells/mm^2] | Daoy cell migration ([1]; U0126 treated cells, no PDGFA, untreated 275, P<0.05) [cells/mm^2] | decrease in baseline phosphorylation of MAPK1/3, fold ([2]; U0126 10 μM pretreatment 1 h, at start of migration assay) [fold] | effect on PDGFA-mediated MAPK1/3 phosphorylation ([2]; U0126 pre-treatment then PDGFA (FIG. 6b)) | effect on adhesion of Daoy cells to fibronectin [3] | stimulation of Daoy migration across fibronectin-coated membranes, fold ([1]; 1 ng/ml PDGFA in lower well, vs no PDGFA) | Daoy cell migration ([1]; 1 ng/ml PDGFA in lower well, untreated 212) [cells/mm^2] | Daoy cell migration ([1]; 4 ng/ml PDGFA in lower well, untreated 212) [cells/mm^2] | increase in Daoy migration, fold ([1]; 10 ng/ml PDGFA in lower well, vs no PDGFA) [fold] | Daoy cell migration ([1]; 10 ng/ml PDGFA in lower well, untreated 212) [cells/mm^2] | increase in MAP2K1 phosphorylation, fold [4] [fold] | increase in MAP2K2 phosphorylation, fold [5] [fold] | increase in MAPK1/3 phosphorylation, fold ([2]; PDGFA 10 ng/ml) [fold]
N#CC(=C(/N)Sc1ccccc1N)/C(C#N)=C(\N)Sc1ccccc1N [U0126] | 50 | 57 | 158 | 65 | 188 | 139 | 9 | blocks PDGFA-mediated MAPK1/3 phosphorylation |  |  |  |  |  |  |  |  | 
PDGFA: PDGFRA ligand, growth factor (Chemicon) used to stimulate Daoy cells |  |  |  |  |  |  |  |  | did not affect the adhesion | approximately 3 fold | 640 | 819 | 4 | 847 | 1.6 | 1.3 | 1.7
